PMC7532004, “Site-specific effects of neurosteroids on GABAA receptor activation and desensitization” (eLife, 2020)
“And” between values parts separate entries of the source, which are not always exact repeats. Identical values can stand only once. Like-named read-outs stand apart in the source and are kept apart here.

Columns and labels:
α1(N408A/Y411F)β3 GABAAR = molecular target: T1, α1(N408A/Y411F)β3 GABAAR (UniProt P28472+P62813, N434A/Y437F); experiment: [3H]muscimol binding to HEK cell membranes, α1 intrasubunit site mutant; set-up: species or system rat α1, human β3; details: for Emax (% of control) of [3H]muscimol binding: 100% means no effect; for Bmax of [3H]muscimol binding isotherm in the presence of the modulator: etomidate 100 μM, 3α5αP 30 μM, KK148 30 μM, control 0.90 ± 0.18
T1 construct: expressed in transfected cells; host or cells: HEK293S GnTI- (ATCC CRL-3022), transient
Description: (§1) The human α1 and β3 GABAAR subunits were subcloned into pcDNA3 for molecular manipulations and cRNA synthesis. Using QuikChange Site-Directed Mutagenesis Kit (Agilent Technologies, Santa Clara, CA), a FLAG tag was first added to the α1 subunit then an 8xHis tag was added to generate the following His-FLAG tag tandem ([…]), inserted between the fourth and fifth residues of the mature peptide. The α1 and β3 subunits were then transferred into the pcDNA4/TO and pcDNA5/TO vectors (Thermo Fisher Scientific), respectively, for tetracycline inducible expression. Transient expression was done using the GABAAR subunits rat α1FLAG ([Ueno et al., 1996]) and human β3 obtained from Geoffrey White (Neurogen, Branford, CT), each were subcloned into pcDNA3 for molecular manipulations and cRNA synthesis. Point mutations were generated using the QuikChange Site-Directed Mutagenesis Kit (Agilent) and the coding region was fully sequenced prior to use. The cDNAs were linearized with XbaI (NEB Labs, Ipswich, MA), and the cRNAs were generated using T7 mMessage mMachine (Ambion, Austin, TX).
(§2) [^3H]muscimol-binding assays were performed using a previously described method ([Chen et al., 2019]). […] Assay tubes were incubated for 1 hr on ice in the dark. […] Membranes were collected on Whatman/GF-C glass filter papers using a Brandel cell harvester (Gaithersburg, MD). To perform [^3H]muscimol binding isotherms, 100 μg/ml aliquots of membrane protein were incubated with 0.3 nM–1 μM [^3H]muscimol for 1 hr on ice in the dark. The specific activity for [^3H]muscimol concentrations from 30 nM to 1 μM was reduced to 2 Ci/mmol by dilution with nonradioactive muscimol. The membranes were collected on Whatman/GF-B glass filter papers using a vacuum manifold. […] For [^3H]muscimol-binding experiments examining competitive interactions between neurosteroids, the combined neurosteroids (0.3 μM 3α5αP or 3 μM KK148 ±30 μM KK150) or the same volume of dimethyl sulfoxide (DMSO) were added to the membranes which were then incubated with 3 nM [^3H]muscimol on ice for 1 hr. Time courses of neurosteroid [^3H]muscimol binding enhancement were examined by adding 10 µM of neurosteroids (3α5αP, 3β5αP) to membranes that had been fully equilibrated with 3 nM [^3H]muscimol for 1 hr on ice; binding was then measured as a function of time at 1, 3, 10, 30, 60 min. The membranes were collected on Whatman/GF-B glass filter papers using a vacuum manifold. Radioactivity bound to the filters was measured by liquid scintillation spectrometry using Bio-Safe II (Research Products International, Mount Prospect, IL).

α1β3(Y284F) GABAAR = molecular target: T2, α1β3(Y284F) GABAAR (UniProt P28472+P62813, Y309F); experiment: [3H]muscimol binding to HEK cell membranes, β3 intrasubunit site mutant; set-up: species or system rat α1, human β3; details: for Emax (% of control) of [3H]muscimol binding: 100% means no effect
T2 construct: expressed in transfected cells; host or cells: HEK293S GnTI- (ATCC CRL-3022), transient
Description: as §1, §2

α1β3 GABAAR = molecular target: T3, α1β3 GABAAR (UniProt P28472+P62813); experiment: Two-electrode voltage clamp in Xenopus laevis oocytes, WT receptor; assay type: cell-based; details: for Potentiation of GABA-elicited currents: 0.3 μM GABA, 10 μM neurosteroid, oocytes; for % of desensitization (reduction of steady-state current): 1 mM GABA, 3β5αP 3 μM, KK148 10 μM, KK150 10 μM, WT
T3 construct: expressed in transfected cells; host or cells: Xenopus laevis oocytes injected with cRNA (α1:β3 5:1)
Description: The wild-type and mutant α1β3 GABAAR were expressed in oocytes from the African clawed frog (Xenopus laevis). Frogs were purchased from Xenopus 1 (Dexter, MI), and housed and cared for in a Washington University Animal Care Facility under the supervision of the Washington University Division of Comparative Medicine. Harvesting of oocytes was conducted under the Guide for the Care and Use of Laboratory Animals as adopted and promulgated by the National Institutes of Health. The animal protocol (No. 20180191) was approved by the Animal Studies Committee of Washington University in St. Louis. The oocytes were injected with a total of 12 ng cRNA. The ratio of cRNAs was 5:1 ratio (α1:β3) to minimize the expression of β3 homomeric receptors. Following injection, the oocytes were incubated in ND96 (96 mM NaCl, 2 mM KCl, 1.8 mM CaCl2, 1 mM MgCl2, 5 mM HEPES; pH 7.4) with supplements (2.5 mM Na pyruvate, 100 U/ml penicillin, 100 μg/ml streptomycin and 50 μg/ml gentamycin) at 16°C for 2 days prior to conducting electrophysiological recordings. The electrophysiological recordings were conducted at room temperature using standard two-electrode voltage clamp. The oocytes were clamped at −60 mV. The chamber (RC-1Z, Warner Instruments, Hamden, CT) was perfused with ND96 at 5–8 ml/min. Solutions were gravity-applied from 30 ml glass syringes with glass luer slips via Teflon tubing. The current responses were amplified with an OC-725C amplifier (Warner Instruments, Hamden, CT), digitized with a Digidata 1200 series digitizer (Molecular Devices), and stored using pClamp (Molecular Devices). Current traces were analyzed with Clampfit (Molecular Devices). […] The stock solution of muscimol was made at 20 mM in ND96 and stored at 4°C. The steroids were dissolved in DMSO at 10–20 mM and stored at room temperature.
The converted current traces were analyzed in the framework of the three-state Resting-Open-Desensitized activation model ([Germann et al., 2019a]; [Germann et al., 2019b]). The model enables analysis and prediction of peak responses using four parameters that characterize the extent of constitutive activity (termed L; L = Resting/Open), affinity of the resting receptor to agonist (KC), affinity of the open receptor to agonist (KO), and the number of agonist binding sites (N). Analysis and prediction of steady-state responses requires an additional parameter, termed Q, that describes the equilibrium between open and desensitized receptors (Q = Open/Desensitized).
The Popen of the peak response is expressed as: Popen,peak=1/1+LΓ and the Popen of the steady-state response as: Popen,steady−state=1/1+1/Q+LΓ where Γ=[(1+[X]/KC)/(1+[X]/KO)]^N
[X]is the concentration of agonist present, and other terms are as described above. In practice, the value of LΓ was calculated using the experimentally determined Popen of the peak response, and then used as a fixed value in estimating Q from Popen,steady-state.
The Pdesensitized was calculated using: Pdesensitized=1/1+Q+QLΓ
Calculated probabilities (e.g. Popen, Pdesentitized) are reported as mean ± SD.

α1(Q242L)β3 GABAAR = α1(Q242L)β3 GABAAR (UniProt P28472+P62813, Q268L); experiment: [3H]muscimol binding to HEK cell membranes, intersubunit site mutant; set-up: expressed in transfected cells; host or cells: HEK293S GnTI- (ATCC CRL-3022), transient; species or system rat α1, human β3; details: for Emax (% of control) of [3H]muscimol binding: 100% means no effect
Description: as §1, §2

[1] = α1(N408A/Y411F)β3, 3 nM [3H]muscimol

Row | SMILES | EC50 (α1(N408A/Y411F)β3 GABAAR) | Hill slope for modulation of [3H]muscimol binding (α1(N408A/Y411F)β3 GABAAR; [1]) | Emax (% of control) of [3H]muscimol binding (α1(N408A/Y411F)β3 GABAAR; [1]) | Bmax of [3H]muscimol binding isotherm in the presence of the modulator (α1(N408A/Y411F)β3 GABAAR; α1(N408A/Y411F)β3) | Hill slope for modulation of [3H]muscimol binding (α1β3(Y284F) GABAAR; α1β3(Y284F), 3 nM [3H]muscimol) | Emax (% of control) of [3H]muscimol binding (α1β3(Y284F) GABAAR; α1β3(Y284F), 3 nM [3H]muscimol) | Potentiation of GABA-elicited currents (α1β3 GABAAR) | EC50 (α1(Q242L)β3 GABAAR) | Hill slope for modulation of [3H]muscimol binding (α1(Q242L)β3 GABAAR; α1(Q242L)β3, 3 nM [3H]muscimol) | Emax (% of control) of [3H]muscimol binding (α1(Q242L)β3 GABAAR; α1(Q242L)β3, 3 nM [3H]muscimol) | % of desensitization (reduction of steady-state current) (α1β3 GABAAR) | also measured
1 | CC(=O)[C@H]1CC[C@H]2[C@@H]3CC[C@H]4C[C@H](O)CC[C@]4(C)[C@H]3CC[C@]12C [3α5αP, allopregnanolone] | 2300 nM | 0.87 ± 0.44 | **146.0 ± 9.3 % of control | 0.93 ± 0.16 pmol/mg | 0.87 ± 0.16 | 342.3 ± 13.9 % of control | potentiation | 2660 nM | 1.16 ± 0.37 | **159.8 ± 10.9 % of control | – | Decrease of enhancement of [3H]muscimol binding by mutation (α1(N408A/Y411F)β3 GABAAR; α1 intrasubunit site mutation vs WT): ~ 80%; EC50 (α1β3(Y284F) GABAAR): 190 ± 40 nM; Decrease of enhancement of [3H]muscimol binding by mutation (α1(Q242L)β3 GABAAR; β3(+)–α1(-) intersubunit site mutation vs WT): ~ 80%
2 | CC(=O)[C@H]1CC[C@H]2[C@@H]3CC[C@H]4C[C@@H](O)CC[C@]4(C)[C@H]3CC[C@]12C [3β5αP, epi-allopregnanolone] | 610 ± 260 nM | 2.25 ± 0.92 | **124.3 ± 2.6 % of control | – | – | **148.6 ± 4.9 % of control | absence of potentiation | 270 ± 90 nM | 0.77 ± 0.21 | 204.3 ± 4.5 % of control | ~ 25% and 23.0 ± 2.8% | Calculated steady-state Pdesensitized (α1β3 GABAAR; 20 nM muscimol + 3 µM 3β5αP): 0.2168; Steady-state Popen (α1β3 GABAAR; 20 nM muscimol + 3 µM 3β5αP): 0.009 ± 0.004; Popen of the steady-state response (α1β3 GABAAR; 1 mM GABA + 3 µM 3β5αP): 0.077 ± 0.013; Sum of (Popen + Pdesensitized) (α1β3 GABAAR; 1 mM GABA + 3 µM 3β5αP): 0.97; Steady-state Pdesensitized (α1β3 GABAAR; 1 mM GABA + 3 µM 3β5αP, Resting-Open-Desensitized model): 0.892; Effect on peak current amplitude (α1β3 GABAAR; co-application of 3 µM 3β5αP with 1 mM GABA): does not reduce; Effect on decay rate of GABA-elicited currents (α1β3 GABAAR; prolonged co-application of 1 mM GABA + 3 µM 3β5αP): increases
3 | C#CCCO[C@H]1CC[C@H]2[C@@H]3CC[C@H]4CC5(CC[C@]4(C)[C@H]3CC[C@]12C)N=N5 [KK148] | – | 0.73 ± 0.23 | **161.7 ± 3.5 % of control | 0.85 ± 0.22 pmol/mg | 1.35 ± 0.13 | **357.2 ± 8.1 % of control | absence of potentiation | – | 1.24 ± 0.12 | 434.5 ± 5.6 % of control | 27.2 ± 6.0% | EC50 (α1(N408A/Y411F)β3 GABAAR; α1(N408A/Y411F)β3, 3 nM [3H]muscimol, read-out: EC50 for modulation of [3H]muscimol binding): 1630 ± 530 nM; EC50 (α1β3(Y284F) GABAAR; α1β3(Y284F), 3 nM [3H]muscimol, read-out: EC50 for modulation of [3H]muscimol binding): 1790 ± 440 nM; EC50 (α1(Q242L)β3 GABAAR; α1(Q242L)β3, 3 nM [3H]muscimol, read-out: EC50 for modulation of [3H]muscimol binding): 2200 ± 310 nM
4 | C#CCCO[C@@H]1CC[C@H]2[C@@H]3CC[C@H]4CC5(CC[C@]4(C)[C@H]3CC[C@]12C)N=N5 [KK150] | – | – | – | – | – | – | absence of potentiation | – | – | – | 2.1 ± 0.7% | –
5 | NCc1cc(=O)[nH]o1 [muscimol] | – | – | – | – | – | – | – | – | – | – | – | Bmax of [3H]muscimol binding isotherm (α1(N408A/Y411F)β3 GABAAR; α1(N408A/Y411F)β3): 0.9 ± 0.1 (*P < 0.01 vs. WT) pmol/mg; Kd (α1(N408A/Y411F)β3 GABAAR; α1(N408A/Y411F)β3, read-out: Kd of [3H]muscimol binding isotherm): 60.7 ± 7.5 nM; Bmax of [3H]muscimol binding isotherm (α1β3(Y284F) GABAAR; α1β3(Y284F)): 10.6 ± 0.9 (P > 0.99 vs. WT) pmol/mg; Kd (α1β3(Y284F) GABAAR; α1β3(Y284F), read-out: Kd of [3H]muscimol binding isotherm): 46.6 ± 3.8 nM; Peak Popen (α1β3 GABAAR; 20 nM muscimol): 0.012 ± 0.004; Calculated steady-state Pdesensitized (α1β3 GABAAR; 20 nM muscimol alone): 0.1001; Steady-state Popen (α1β3 GABAAR; 20 nM muscimol alone): 0.011 ± 0.004; Bmax of [3H]muscimol binding isotherm (α1(Q242L)β3 GABAAR; α1(Q242L)β3): 9.9 ± 0.6 (P > 0.99 vs. WT) pmol/mg; Kd (α1(Q242L)β3 GABAAR; α1(Q242L)β3, read-out: Kd of [3H]muscimol binding isotherm): 44.3 ± 4.6 nM
